{"source": "ChEMBL document CHEMBL1144969", "about": "“Structure-based design of thioether-bridged cyclic phosphopeptides binding to Grb2-SH2 domain” (Bioorg Med Chem Lett, 2003)", "target": "Growth factor receptor-bound protein 2 (Homo sapiens, UniProt P62993)", "sequence (P62993 whole entry, the tested form may be a part)": "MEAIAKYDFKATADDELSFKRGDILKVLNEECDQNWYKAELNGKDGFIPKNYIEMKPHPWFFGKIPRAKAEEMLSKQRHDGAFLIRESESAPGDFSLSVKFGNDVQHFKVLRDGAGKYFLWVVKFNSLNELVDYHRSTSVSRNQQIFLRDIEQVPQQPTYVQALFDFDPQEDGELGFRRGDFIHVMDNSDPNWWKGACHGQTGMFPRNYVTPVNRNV", "test": "Inhibition of Growth factor receptor-bound protein 2 (Grb2) SH2 domain binding by ELISA", "note": "Starred links: 1 amine or outer side, 2 acyl side, 3 side chain; linkers in the order of their positions; H or OH if unused. Positions of bridges follow the written chain, without caps; N, C: chain ends. Non-standard residues stand in square brackets, D forms with d. Residues, ends and D or L forms follow the SMILES beside them. pY = N[C@@H](Cc1ccc(OP(=O)(O)O)cc1)C(=O)O; tBuAla = CC(C)(C)C[C@H](N)C(=O)O; X1 = O=C(C[*:2])NCCC(=O)[*:1]; hCys = N[C@@H](CCS)C(=O)O; Ac6c = NC1(C(=O)O)CCCCC1", "data": [{"molecule": "CSCC[C@@H]1NC(=O)CNC(=O)[C@H](C(C)C)NC(=O)[C@H](CC(N)=O)NC(=O)[C@H](CCC(=O)O)NC(=O)[C@H](Cc2ccc(OP(=O)(O)O)cc2)NC(=O)[C@H](CC(C)C)NC(=O)CCNC(=O)CSC[C@@H](C(N)=O)NC(=O)[C@H](Cc2ccc(O)cc2)NC1=O", "note": "(L[pY]ENVGMYC-NH2; linker N-9 via X1)", "values": [{"measurement": "IC50", "value": 8.26, "unit": "nM"}]}, {"molecule": "CSCC[C@@H]1NC(=O)CNC(=O)[C@H](C(C)C)NC(=O)[C@H](CC(N)=O)NC(=O)C2(CCCCC2)NC(=O)[C@H](Cc2ccc(OP(=O)(O)O)cc2)NC(=O)[C@H](CC(C)C)NC(=O)CCNC(=O)CSC[C@@H](C(N)=O)NC(=O)[C@H](Cc2ccc(O)cc2)NC1=O", "note": "(L[pY][Ac6c]NVGMYC-NH2; linker N-9 via X1)", "values": [{"measurement": "IC50", "value": 21, "unit": "nM"}]}, {"molecule": "CC(C)[C@@H]1NC(=O)[C@H](CC(N)=O)NC(=O)C2(CCCCC2)NC(=O)[C@H](Cc2ccc(OP(=O)(O)O)cc2)NC(=O)[C@H](Cc2ccccc2)NC(=O)[C@H](C)NC(=O)CSC[C@@H](C(N)=O)NC(=O)[C@H](Cc2ccc(O)cc2)NC(=O)[C@H](CC(C)(C)C)NC(=O)CNC1=O", "note": "({CH2CO}-AF[pY][Ac6c]NVG[tBuAla]YC-NH2; thioether N-10)", "values": [{"measurement": "IC50", "value": 1.68, "unit": "nM"}]}, {"molecule": "CSCC[C@@H]1NC(=O)CNC(=O)[C@H](C(C)C)NC(=O)[C@H](CC(N)=O)NC(=O)[C@H](CCC(=O)O)NC(=O)[C@H](Cc2ccc(OP(=O)(O)O)cc2)NC(=O)[C@H](CC(C)C)NC(=O)[C@H](C)NC(=O)CSC[C@@H](C(N)=O)NC(=O)[C@H](Cc2ccc(O)cc2)NC1=O", "note": "({CH2CO}-AL[pY]ENVGMYC-NH2; thioether N-10)", "values": [{"measurement": "IC50", "value": 25.3, "unit": "nM"}]}, {"molecule": "CSCC[C@@H]1NC(=O)CNC(=O)[C@H](C(C)C)NC(=O)[C@H](CC(N)=O)NC(=O)[C@H](CCC(=O)O)NC(=O)[C@H](Cc2ccc(OP(=O)(O)O)cc2)NC(=O)[C@H](CC(C)C)NC(=O)[C@H](C)NC(=O)CSCC[C@@H](C(N)=O)NC(=O)[C@H](Cc2ccc(O)cc2)NC1=O", "note": "({CH2CO}-AL[pY]ENVGMY[hCys]-NH2; thioether N-10)", "values": [{"measurement": "IC50", "value": 54.7, "unit": "nM"}]}, {"molecule": "CC(C)C[C@@H]1NC(=O)[C@H](C)NC(=O)CSC[C@@H](C(N)=O)NC(=O)[C@H](Cc2ccc(O)cc2)NC(=O)[C@H](CC(C)(C)C)NC(=O)CNC(=O)[C@H](C(C)C)NC(=O)[C@H](CC(N)=O)NC(=O)[C@H](CCC(=O)O)NC(=O)[C@H](Cc2ccc(OP(=O)(O)O)cc2)NC1=O", "note": "({CH2CO}-AL[pY]ENVG[tBuAla]YC-NH2; thioether N-10)", "values": [{"measurement": "IC50", "value": 14.5, "unit": "nM"}]}, {"molecule": "CC(C)C[C@@H]1NC(=O)[C@H](C)NC(=O)CSC[C@@H](C(N)=O)NC(=O)[C@H](Cc2ccc(O)cc2)NC(=O)[C@H](C)NC(=O)CNC(=O)[C@H](C(C)C)NC(=O)[C@H](CC(N)=O)NC(=O)C2(CCCCC2)NC(=O)[C@H](Cc2ccc(OP(=O)(O)O)cc2)NC1=O", "note": "({CH2CO}-AL[pY][Ac6c]NVGAYC-NH2; thioether N-10)", "values": [{"measurement": "IC50", "value": 13.3, "unit": "nM"}]}, {"molecule": "CSCC[C@@H]1NC(=O)CNC(=O)[C@H](C(C)C)NC(=O)[C@H](CC(N)=O)NC(=O)C2(CCCCC2)NC(=O)[C@H](Cc2ccc(OP(=O)(O)O)cc2)NC(=O)[C@H](CC(C)C)NC(=O)[C@H](C)NC(=O)CSC[C@@H](C(N)=O)NC(=O)[C@H](Cc2ccc(O)cc2)NC1=O", "note": "({CH2CO}-AL[pY][Ac6c]NVGMYC-NH2; thioether N-10)", "values": [{"measurement": "IC50", "value": 3.77, "unit": "nM"}]}, {"molecule": "CSCC[C@@H]1NC(=O)CNC(=O)[C@H](C(C)C)NC(=O)[C@H](CC(N)=O)NC(=O)[C@H](CCC(=O)O)NC(=O)[C@H](Cc2ccc(OP(=O)(O)O)cc2)NC(=O)[C@H](CC(C)C)NC(=O)[C@H](CCC(=O)O)NC(=O)CSC[C@@H](C(N)=O)NC(=O)[C@H](Cc2ccc(O)cc2)NC1=O", "note": "({CH2CO}-EL[pY]ENVGMYC-NH2; thioether N-10)", "values": [{"measurement": "IC50", "value": 137, "unit": "nM"}]}, {"molecule": "CSCC[C@@H]1NC(=O)CNC(=O)[C@H](C(C)C)NC(=O)[C@H](CC(N)=O)NC(=O)[C@H](CCC(=O)O)NC(=O)[C@H](Cc2ccc(OP(=O)(O)O)cc2)NC(=O)[C@H](CC(C)C)NC(=O)CNC(=O)CSC[C@@H](C(N)=O)NC(=O)[C@H](Cc2ccc(O)cc2)NC1=O", "note": "({CH2CO}-GL[pY]ENVGMYC-NH2; thioether N-10)", "values": [{"measurement": "IC50", "value": 31.5, "unit": "nM"}]}, {"molecule": "CSCC[C@@H]1NC(=O)CNC(=O)[C@H](C(C)C)NC(=O)[C@H](CC(N)=O)NC(=O)[C@H](CCC(=O)O)NC(=O)[C@H](Cc2ccc(OP(=O)(O)O)cc2)NC(=O)[C@H](CC(C)C)NC(=O)[C@@H]2CCCN2C(=O)CSC[C@@H](C(N)=O)NC(=O)[C@H](Cc2ccc(O)cc2)NC1=O", "note": "({CH2CO}-PL[pY]ENVGMYC-NH2; thioether N-10)", "values": [{"measurement": "IC50", "value": 75.7, "unit": "nM"}]}, {"molecule": "CC(C)C[C@@H]1NC(=O)[C@@H]2CCCN2C(=O)CSC[C@@H](C(N)=O)NC(=O)[C@H](Cc2ccc(O)cc2)NC(=O)[C@H](CC(C)(C)C)NC(=O)CNC(=O)[C@H](C(C)C)NC(=O)[C@H](CC(N)=O)NC(=O)C2(CCCCC2)NC(=O)[C@H](Cc2ccc(OP(=O)(O)O)cc2)NC1=O", "note": "({CH2CO}-PL[pY][Ac6c]NVG[tBuAla]YC-NH2; thioether N-10)", "values": [{"measurement": "IC50", "value": 7.65, "unit": "nM"}]}]}
